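Grown in 96-well plates, cells were treated for 48 hours with each compound at five concentrations. Insufficient inhibition: endpoint recorded as highest concentration tested. At the TGI there is no net growth.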
Legend:
Assay in all cases: inhibition of tumour cell growth, NCI panel, 48 h
[1] = tested on: EKVX NSCLC
[2] = tested on: COLO 205 colon
[3] = tested on: MDA-N
[4] = tested on: MDA-MB-231 breast
[5] = tested on: 786-0 renal
[6] = tested on: NCI-H522 lung
[7] = tested on: T-47D breast
[8] = tested on: SK-MEL-2 melanoma
[9] = tested on: HCT-116 colon
[10] = tested on: CAKI-1 renal
[11] = tested on: SW-620 colon
[12] = tested on: DU-145 prostate
[13] = tested on: NCI-H23 lung
[14] = tested on: MOLT-4 leukemia
[15] = tested on: SF-539 CNS
[16] = tested on: OVCAR-5 ovarian
[17] = tested on: UACC-257 melanoma
[18] = tested on: HOP-62 NSCLC
[19] = tested on: UACC-62 melanoma
[20] = tested on: HS 578T breast
[21] = tested on: MCF7 breast
[22] = tested on: OVCAR-4 ovarian
[23] = tested on: LOX IMVI melanoma
[24] = tested on: PC-3 prostate
[25] = tested on: HCT-15 colon
[26] = tested on: K-562 leukemia
[27] = tested on: NCI-H226 lung
[28] = tested on: U251 CNS
[29] = tested on: SNB-19 CNS
[30] = tested on: RXF 393 renal
[31] = tested on: SK-MEL-28 melanoma
[32] = tested on: OVCAR-3 ovarian
[33] = tested on: ACHN renal
[34] = tested on: SR leukemia
[35] = tested on: HCC-2998 colon
[36] = tested on: HL-60(TB) leukemia
[37] = tested on: A549 NSCLC
[38] = tested on: UO-31 renal
[39] = tested on: BT-549 breast
[40] = tested on: TK-10 renal
[41] = tested on: MALME-3M melanoma
[42] = tested on: SF-295 CNS
[43] = tested on: IGROV1 ovarian
[44] = tested on: SK-MEL-5 melanoma
[45] = tested on: CCRF-CEM leukemia
[46] = tested on: RPMI-8226 leukemia
[47] = tested on: M14 melanoma
[48] = tested on: HT29 colon
[49] = tested on: SN12C renal
[50] = tested on: SF-268 CNS
[51] = tested on: KM12 colon
[52] = tested on: MDA-MB-435
[53] = tested on: SNB-75 CNS
[54] = tested on: SK-OV-3 ovarian
[55] = tested on: A498 renal
[56] = tested on: NCI-H460 lung
[57] = tested on: OVCAR-8 ovarian
[58] = tested on: NCI/ADR-RES ovarian
[59] = tested on: HOP-92 NSCLC

`O=C(O)Cc1cccc2c(=O)c3cccc([N+](=O)[O-])c3oc12` showed a TGI [1] greater than 100 µM, a TGI [2] greater than 100 µM and a TGI [3] greater than 100 µM. It also gave a TGI [4] greater than 100 µM, a TGI [5] greater than 100 µM and a TGI [6] greater than 100 µM. The TGI [7] was greater than 100 µM, the TGI [8] was greater than 100 µM and the TGI [9] was greater than 100 µM. The TGI [10] was greater than 100 µM, the TGI [11] was greater than 100 µM and the TGI [12] was greater than 100 µM. It also gave a TGI [13] greater than 100 µM, a TGI [14] greater than 100 µM and a TGI [15] greater than 100 µM. For the same compound, the TGI [16] was greater than 100 µM, the TGI [17] was greater than 100 µM and the TGI [18] was greater than 100 µM. For the same compound, the TGI [19] was greater than 100 µM, the TGI [20] was greater than 100 µM and the TGI [21] was greater than 100 µM. For the same compound, the TGI [22] was greater than 100 µM, the TGI [23] was greater than 100 µM and the TGI [24] was greater than 100 µM. For the same compound, the TGI [25] was greater than 100 µM, the TGI [26] was greater than 100 µM and the TGI [27] was greater than 100 µM. It also gave a TGI [28] greater than 100 µM, a TGI [29] greater than 100 µM and a TGI [30] greater than 100 µM. For the same compound, the TGI [31] was greater than 100 µM, the TGI [32] was greater than 100 µM and the TGI [33] was greater than 100 µM. For the same compound, the TGI [34] was greater than 100 µM, the TGI [35] was greater than 100 µM and the TGI [36] was greater than 100 µM. For the same compound, the TGI [37] was greater than 100 µM, the TGI [38] was greater than 100 µM and the TGI [39] was greater than 100 µM. For the same compound, the TGI [40] was greater than 100 µM, the TGI [41] was greater than 100 µM and the TGI [42] was greater than 100 µM. The TGI [43] was greater than 100 µM, the TGI [44] was greater than 100 µM and the TGI [45] was greater than 100 µM. The TGI [46] was greater than 100 µM, the TGI [47] was greater than 100 µM and the TGI [48] was greater than 100 µM. The TGI [49] was greater than 100 µM, the TGI [50] was greater than 100 µM and the TGI [51] was greater than 100 µM. For the same compound, the TGI [52] was greater than 100 µM, the TGI [53] was greater than 100 µM and the TGI [54] was greater than 100 µM. The TGI [55] was greater than 100 µM, the TGI [56] was greater than 100 µM and the TGI [57] was greater than 100 µM.

`S=C=NC1CCC(c2cc3ccccc3s2)(N2CCCCC2)CC1` (stereo unspecified) gave a TGI [1] of 4.69 µM, a TGI [2] of 3.93 µM and a TGI [58] of 5.68 µM. For the same compound, the TGI [3] was 3.73 µM, the TGI [5] was 3.26 µM and the TGI [6] was 3.23 µM. The TGI [7] was 25.3 µM, the TGI [9] was 3.58 µM and the TGI [10] was 3.45 µM. It also gave a TGI [12] of 4.52 µM, a TGI [13] of 3.85 µM and a TGI [14] of 1.01 µM. It also gave a TGI [15] of 3.77 µM, a TGI [16] of 3.7 µM and a TGI [17] of 3.54 µM. It also gave a TGI [19] of 3.6 µM, a TGI [20] of 4.73 µM and a TGI [21] of 5.72 µM. For the same compound, the TGI [22] was 3.7 µM, the TGI [23] was 3.03 µM and the TGI [25] was 3.7 µM. For the same compound, the TGI [26] was 1.98 µM, the TGI [29] was 7.79 µM and the TGI [30] was 3.16 µM. It also gave a TGI [31] of 3.39 µM, a TGI [32] of 4.34 µM and a TGI [33] of 3.34 µM. The TGI [34] was 2.12 µM, the TGI [35] was 3.22 µM and the TGI [36] was 3.09 µM. It also gave a TGI [37] of 11.1 µM, a TGI [38] of 3.66 µM and a TGI [39] of 6.55 µM. The TGI [40] was 3.45 µM, the TGI [41] was 3.04 µM and the TGI [42] was 7.39 µM. The TGI [44] was 2.94 µM, the TGI [45] was 2.5 µM and the TGI [47] was 4.39 µM. The TGI [48] was 3.66 µM, the TGI [49] was 3.77 µM and the TGI [50] was 4.3 µM. It also gave a TGI [51] of 3.95 µM, a TGI [52] of 3.19 µM and a TGI [53] of 4.2 µM. It also gave a TGI [54] of 4.59 µM, a TGI [55] of 5.1 µM and a TGI [56] of 3.54 µM. It also gave a TGI [59] of 3.56 µM.

`O=[N+]([O-])c1cccc(N=Nc2c(O)ccc3ccccc23)c1` was tested, and the TGI [1] was greater than 100 µM, the TGI [2] was greater than 100 µM and the TGI [58] was greater than 100 µM. The TGI [3] was greater than 100 µM, the TGI [4] was greater than 100 µM and the TGI [5] was greater than 100 µM. The TGI [6] was greater than 100 µM, the TGI [7] was greater than 100 µM and the TGI [8] was greater than 100 µM. For the same compound, the TGI [9] was greater than 100 µM, the TGI [10] was greater than 100 µM and the TGI [11] was greater than 100 µM. The TGI [12] was greater than 100 µM, the TGI [13] was greater than 100 µM and the TGI [14] was greater than 100 µM. For the same compound, the TGI [16] was greater than 100 µM, the TGI [17] was greater than 100 µM and the TGI [18] was greater than 100 µM. It also gave a TGI [19] greater than 100 µM, a TGI [20] greater than 100 µM and a TGI [22] greater than 100 µM. For the same compound, the TGI [23] was greater than 100 µM, the TGI [24] was greater than 100 µM and the TGI [25] was greater than 100 µM. The TGI [26] was greater than 100 µM, the TGI [28] was greater than 100 µM and the TGI [29] was 75.5 µM. It also gave a TGI [30] greater than 100 µM, a TGI [31] greater than 100 µM and a TGI [37] greater than 100 µM. It also gave a TGI [38] greater than 100 µM, a TGI [39] greater than 100 µM and a TGI [40] greater than 100 µM. It also gave a TGI [41] greater than 100 µM, a TGI [42] greater than 100 µM and a TGI [43] greater than 100 µM. The TGI [44] was greater than 100 µM, the TGI [45] was 56.7 µM and the TGI [46] was greater than 100 µM. For the same compound, the TGI [47] was greater than 100 µM, the TGI [48] was greater than 100 µM and the TGI [49] was greater than 100 µM. It also gave a TGI [50] greater than 100 µM, a TGI [51] greater than 100 µM and a TGI [52] greater than 100 µM. It also gave a TGI [53] greater than 100 µM, a TGI [54] greater than 100 µM and a TGI [55] greater than 100 µM. It also gave a TGI [59] greater than 100 µM and a TGI [57] greater than 100 µM.

`Cn1c(N=P(c2ccccc2)(c2ccccc2)c2ccccc2)c([N+](=O)[O-])c(=O)n(C)c1=O` was tested, and the TGI [1] was greater than 100 µM, the TGI [2] was greater than 100 µM and the TGI [58] was greater than 100 µM. For the same compound, the TGI [3] was greater than 100 µM, the TGI [4] was greater than 100 µM and the TGI [5] was greater than 100 µM. For the same compound, the TGI [6] was greater than 100 µM, the TGI [7] was greater than 100 µM and the TGI [8] was greater than 100 µM. The TGI [9] was greater than 100 µM, the TGI [10] was greater than 100 µM and the TGI [11] was greater than 100 µM. The TGI [13] was greater than 100 µM, the TGI [14] was 66.8 µM and the TGI [15] was greater than 100 µM. For the same compound, the TGI [16] was greater than 100 µM, the TGI [17] was greater than 100 µM and the TGI [18] was greater than 100 µM. The TGI [19] was greater than 100 µM, the TGI [20] was greater than 100 µM and the TGI [21] was greater than 100 µM. The TGI [22] was greater than 100 µM, the TGI [23] was greater than 100 µM and the TGI [24] was greater than 100 µM. It also gave a TGI [25] greater than 100 µM, a TGI [26] greater than 100 µM and a TGI [27] greater than 100 µM. The TGI [28] was greater than 100 µM, the TGI [29] was greater than 100 µM and the TGI [30] was greater than 100 µM. For the same compound, the TGI [32] was greater than 100 µM, the TGI [33] was greater than 100 µM and the TGI [35] was greater than 100 µM. The TGI [37] was greater than 100 µM, the TGI [38] was greater than 100 µM and the TGI [39] was greater than 100 µM. For the same compound, the TGI [40] was greater than 100 µM, the TGI [41] was greater than 100 µM and the TGI [42] was greater than 100 µM. It also gave a TGI [43] greater than 100 µM, a TGI [44] greater than 100 µM and a TGI [45] of 76.6 µM. For the same compound, the TGI [46] was greater than 100 µM, the TGI [47] was greater than 100 µM and the TGI [48] was greater than 100 µM. The TGI [49] was greater than 100 µM, the TGI [50] was greater than 100 µM and the TGI [51] was 80.4 µM. For the same compound, the TGI [52] was greater than 100 µM, the TGI [53] was 91.8 µM and the TGI [54] was greater than 100 µM. For the same compound, the TGI [55] was greater than 100 µM, the TGI [56] was greater than 100 µM and the TGI [59] was greater than 100 µM. The TGI [57] was 75.3 µM.

— PubChem BioAssay (NCI)
